Test results published in ChEMBL document CHEMBL1127234, “Acceptor analogues as potential inhibitors of bovine -1,4-galactosyl transferase” (Bioorg Med Chem Lett, 1994).

Experiments:
[1] = target: T1, Beta-1,4-galactosyltransferase 1 (Bos taurus, UniProt P08037); assay: (§1) Inhibitory activity against bovine Beta-1,4-galactosyltransferase at 100 uM concentration
T1 sequence (P08037 whole entry): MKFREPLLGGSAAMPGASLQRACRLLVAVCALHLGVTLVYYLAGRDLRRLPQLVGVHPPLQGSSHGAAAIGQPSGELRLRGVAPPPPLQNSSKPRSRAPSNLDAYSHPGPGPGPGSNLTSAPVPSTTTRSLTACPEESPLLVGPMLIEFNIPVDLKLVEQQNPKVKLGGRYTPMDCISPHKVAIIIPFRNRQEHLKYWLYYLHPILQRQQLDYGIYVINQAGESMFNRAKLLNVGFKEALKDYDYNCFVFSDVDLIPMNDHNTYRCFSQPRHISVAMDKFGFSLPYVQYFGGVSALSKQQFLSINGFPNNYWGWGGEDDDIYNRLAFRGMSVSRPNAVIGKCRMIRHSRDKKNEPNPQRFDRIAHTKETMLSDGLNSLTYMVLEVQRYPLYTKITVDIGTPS

[2] = target: T2, Beta-1,4-galactosyltransferase 1 (Bos taurus) (UniProt P08037); assay: as §1
T2 sequence (whole entry): T1 sequence (P08037 whole entry)

[3] = target: T2, Beta-1,4-galactosyltransferase 1 (Bos taurus); assay: Inhibitory activity against bovine Beta-1,4-galactosyltransferase at 100 uM concentration; ND means Not detectable

Row | SMILES | Ki [1] [µM] | Rate [2] [%] | Rate [3]
1 | CC(=O)N[C@H]1[C@H](OCc2ccccc2)O[C@H](CO)[C@@H](N)[C@@H]1O | 850 | 2 | –
2 | CC(=O)N[C@H]1[C@H](O)[C@@H](N)[C@H](OCc2ccccc2)O[C@@H]1CO | – | 4 | –
3 | CC(=O)N[C@H]1[C@H](OCc2ccccc2)O[C@H](CO)[C@@H](NC(C)=O)[C@@H]1O | – | 2 | Not detectable

Further lines, results first:

Row | Ki [1] [µM] | Rate [2] [%] | Rate [3] | SMILES
4 | – | – | Not detectable | CC(=O)N[C@H]1[C@H](OCc2ccccc2)O[C@H](CO)[C@@H](N=[N+]=[N-])[C@@H]1O
5 | – | 100 | – | CC(=O)N[C@H]1[C@H](OCc2ccccc2)O[C@H](CO)[C@@H](O)[C@@H]1O
6 | – | 27 | – | CC(=O)N[C@H]1[C@H](O)[C@@H](N=[N+]=[N-])[C@H](OCc2ccccc2)O[C@@H]1CO
